Measurements as given in ChEMBL document CHEMBL4038280, “Synthesis and human/bacterial carbonic anhydrase inhibition with a series of sulfonamides incorporating phthalimido moieties” (Bioorg Med Chem, 2017).

Experiments:
[1] = Inhibition of Vibrio cholerae alpha carbonic anhydrase preincubated for 15 mins by stopped flow CO2 hydration assay
[2] = Inhibition of Vibrio cholerae beta carbonic anhydrase preincubated for 15 mins by stopped flow CO2 hydration assay

Row | SMILES | Ki [1] | Ki [2]
1 | COc1cc(NC(=O)c2ccc3c(c2)C(=O)N(c2ccc(S(N)(=O)=O)cc2)C3=O)c(C(=O)O)cc1OC | 2.84 µM | 7.97 µM
2 | COc1cc(NC(=O)c2ccc3c(c2)C(=O)N(CCc2ccc(S(N)(=O)=O)cc2)C3=O)c(C(=O)O)cc1OC | 3.19 µM | 8.58 µM
3 | Cc1ccc(NC(=O)c2ccc3c(c2)C(=O)N(c2ccc(S(N)(=O)=O)cc2)C3=O)c(C(=O)O)c1 | 1.68 µM | 5.42 µM
4 | COc1cc(NC(=O)c2ccc3c(c2)C(=O)N(Cc2ccc(S(N)(=O)=O)cc2)C3=O)c(C(=O)O)cc1OC | 2.93 µM | 9.26 µM
5 | NS(=O)(=O)c1ccc(N2C(=O)c3ccc(C(=O)Nc4ccc(I)cc4C(=O)O)cc3C2=O)cc1 | 0.281 µM | 5.4 µM
6 | NS(=O)(=O)c1ccc(CCN2C(=O)c3ccc(C(=O)Nc4ccc(I)cc4C(=O)O)cc3C2=O)cc1 | 2.58 µM | 6.75 µM
7 | NS(=O)(=O)c1ccc(CN2C(=O)c3ccc(C(=O)Nc4ccc(I)cc4C(=O)O)cc3C2=O)cc1 | 1.33 µM | 6.78 µM
8 | Cc1ccc(NC(=O)c2ccc3c(c2)C(=O)N(Cc2ccc(S(N)(=O)=O)cc2)C3=O)c(C(=O)O)c1 | 2.59 µM | 8.2 µM
9 | Cc1ccc(NC(=O)c2ccc3c(c2)C(=O)N(CCc2ccc(S(N)(=O)=O)cc2)C3=O)c(C(=O)O)c1 | 1.96 µM | 9.26 µM
